According to patent publication US6448442B1, “Contrast media” (Amersham Health AS, priority 1999, dated 2002):

How the values were obtained:
[1] = 350 mgI/ml, 20° C., data from literature; cited from earlier work
[2] = Solubility (remark in Table 2); assay type: physicochemical; details: aqueous solution, no viscosity given

For `CN(C(=O)CO)c1c(I)c(C(=O)NCC(O)CO)c(I)c(C(=O)NCC(O)CO)c1I` (centres unmarked) [Iomeprol], the Viscosity [1] is given as 15.4 mPas.

In the case of `OCc1cc(OCC(O)CO)c(I)c(OCC(O)CO)c1I` (centres unmarked) [Example 78, 3,5-Bis-(2,3-dihydroxypropyloxy)-2,4-diiodobenzyl alcohol], the solubility [2] is reported as “low solubility”.
